Assay results taken from article PMC12959773 (Protein & Cell, 2025).
Residue numbers refer to the chain shown, from its start.

Columns and labels:
SLC7A13-SLC3A1 complex [1] = target: T1, SLC7A13-SLC3A1 complex (Homo sapiens, UniProt Q8TCU3); test: microscale thermophoresis; settings: read-out: binding affinity
T1 construct: heterodimeric light/heavy chain transporter, dimer of heterodimers; ectopically expressed in HEK293T / HEK293 cells (Expi293 for cryo-EM); with Amino acid transporter heavy chain SLC3A1
T1 sequence (Q8TCU3 1-470): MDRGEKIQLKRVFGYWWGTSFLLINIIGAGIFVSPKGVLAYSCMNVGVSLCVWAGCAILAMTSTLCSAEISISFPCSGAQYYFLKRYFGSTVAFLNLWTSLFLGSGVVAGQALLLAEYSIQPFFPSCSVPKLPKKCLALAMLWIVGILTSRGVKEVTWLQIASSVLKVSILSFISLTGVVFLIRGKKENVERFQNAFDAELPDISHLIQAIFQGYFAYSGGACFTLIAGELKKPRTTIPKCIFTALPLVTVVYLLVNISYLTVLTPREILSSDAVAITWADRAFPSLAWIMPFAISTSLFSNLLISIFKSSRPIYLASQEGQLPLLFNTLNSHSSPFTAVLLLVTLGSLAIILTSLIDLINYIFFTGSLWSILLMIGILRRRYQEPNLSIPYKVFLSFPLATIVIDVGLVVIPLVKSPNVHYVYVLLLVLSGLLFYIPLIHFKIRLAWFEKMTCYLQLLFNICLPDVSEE
T1 sequence (Q07837 1-685 partner): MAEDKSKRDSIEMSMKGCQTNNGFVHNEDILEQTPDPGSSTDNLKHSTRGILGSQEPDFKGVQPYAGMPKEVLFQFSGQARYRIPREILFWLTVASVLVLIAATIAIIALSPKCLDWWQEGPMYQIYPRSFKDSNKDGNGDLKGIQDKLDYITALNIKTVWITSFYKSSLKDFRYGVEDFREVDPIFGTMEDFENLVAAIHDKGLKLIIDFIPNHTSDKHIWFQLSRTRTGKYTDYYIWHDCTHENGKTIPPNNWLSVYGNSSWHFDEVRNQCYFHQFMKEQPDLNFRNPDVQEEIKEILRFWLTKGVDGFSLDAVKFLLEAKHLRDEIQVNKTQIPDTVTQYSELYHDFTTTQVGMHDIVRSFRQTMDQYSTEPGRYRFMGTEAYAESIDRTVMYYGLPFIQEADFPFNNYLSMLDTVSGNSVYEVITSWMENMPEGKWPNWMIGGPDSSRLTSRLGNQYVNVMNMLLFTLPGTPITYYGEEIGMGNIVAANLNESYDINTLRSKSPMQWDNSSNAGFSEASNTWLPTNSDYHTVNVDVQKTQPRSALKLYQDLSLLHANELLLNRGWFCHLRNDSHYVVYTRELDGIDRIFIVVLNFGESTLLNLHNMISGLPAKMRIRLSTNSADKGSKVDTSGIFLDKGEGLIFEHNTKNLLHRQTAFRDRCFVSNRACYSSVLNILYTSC

SLC7A13-SLC3A1 complex [2] = target: T2, SLC7A13-SLC3A1 complex (Homo sapiens, UniProt Q8TCU3, S306A); test: [2H]-cystine uptake, isotope tracking; assay type: cell-based; settings: HEK293 cells transfected with SLC7A13 and SLC3A1; labelled compound
T2 construct: heterodimeric light/heavy chain transporter, dimer of heterodimers; ectopically expressed in HEK293T / HEK293 cells (Expi293 for cryo-EM); with Amino acid transporter heavy chain SLC3A1
T2 sequence (Q8TCU3 1-470 S306A): T1 sequence (Q8TCU3 1-470) with S306A
T2 sequence (Q07837 1-685 partner): T1 sequence (Q07837 1-685 partner)

SLC7A13-SLC3A1 complex [3] = target: T3, SLC7A13-SLC3A1 complex (Homo sapiens, UniProt Q8TCU3, F216A); test: [2H]-cystine uptake, isotope tracking; assay type: cell-based; settings: HEK293 cells transfected with SLC7A13 and SLC3A1; labelled compound
T3 construct: heterodimeric light/heavy chain transporter, dimer of heterodimers; ectopically expressed in HEK293T / HEK293 cells (Expi293 for cryo-EM); with Amino acid transporter heavy chain SLC3A1
T3 sequence (Q8TCU3 1-470 F216A): T1 sequence (Q8TCU3 1-470) with F216A
T3 sequence (Q07837 1-685 partner): T1 sequence (Q07837 1-685 partner)

N[C@@H](CSSC[C@H](N)C(=O)O)C(=O)O [cystine]
Kd (SLC7A13-SLC3A1 complex [1]): 112 ± 44 µM | cystine uptake (SLC7A13-SLC3A1 complex [2]): mutation in any of the seven SLC7A13-specific residues to alanine significantly reduced SLC7A13’s transporter activities | cystine uptake (SLC7A13-SLC3A1 complex [3]): mutation in any of the seven SLC7A13-specific residues to alanine significantly reduced SLC7A13’s transporter activities
